From BindingDB's records for doi:10.1016/j.bmc.2006.03.027 (Abbott Laboratories, 2006)

Target: Transient receptor potential cation channel subfamily V member 1 (Homo sapiens, UniProt Q8NER1)
Test: Ca2+ Influx Functional Assay for the Determination of in Vitro Activity.
Settings: pH 7.4; 22 °C

Chain of Transient receptor potential cation channel subfamily V member 1 (Q8NER1 whole entry): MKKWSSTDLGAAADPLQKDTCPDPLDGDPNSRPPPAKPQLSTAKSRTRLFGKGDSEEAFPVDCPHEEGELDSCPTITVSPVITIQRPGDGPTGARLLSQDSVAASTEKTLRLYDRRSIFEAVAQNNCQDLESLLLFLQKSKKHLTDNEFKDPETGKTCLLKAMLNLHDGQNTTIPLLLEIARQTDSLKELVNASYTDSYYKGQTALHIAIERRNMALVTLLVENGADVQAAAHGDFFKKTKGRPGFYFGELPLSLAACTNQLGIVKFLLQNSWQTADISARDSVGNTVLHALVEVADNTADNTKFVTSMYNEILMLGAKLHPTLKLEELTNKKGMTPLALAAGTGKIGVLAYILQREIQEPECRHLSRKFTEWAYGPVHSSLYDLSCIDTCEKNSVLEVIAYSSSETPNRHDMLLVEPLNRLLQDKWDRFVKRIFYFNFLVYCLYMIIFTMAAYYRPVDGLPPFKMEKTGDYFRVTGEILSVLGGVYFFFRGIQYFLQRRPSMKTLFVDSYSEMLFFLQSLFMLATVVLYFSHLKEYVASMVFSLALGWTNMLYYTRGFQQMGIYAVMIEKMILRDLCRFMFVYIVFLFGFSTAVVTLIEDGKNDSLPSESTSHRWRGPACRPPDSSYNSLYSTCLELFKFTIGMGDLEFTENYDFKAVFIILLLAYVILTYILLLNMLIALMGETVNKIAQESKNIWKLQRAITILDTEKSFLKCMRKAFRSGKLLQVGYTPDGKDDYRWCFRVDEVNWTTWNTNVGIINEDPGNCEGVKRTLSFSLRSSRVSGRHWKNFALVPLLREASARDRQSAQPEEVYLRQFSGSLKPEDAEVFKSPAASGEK

| EC50 | Compound |
| --- | --- |
| 120 nM | Cn1ncc2c(NC(=O)NCc3ccc(Cl)c(Cl)c3)cccc21 [1-[(3,4-dichlorophenyl)methyl]-3-(1-methyl-1H-indazol-4-yl)urea] |
| 3540 nM | O=C(NCc1ccc(Br)cc1)Nc1ccc2[nH]ncc2c1 [1-[(4-bromophenyl)methyl]-3-1H-indazol-5-ylurea] |
| 110 nM | O=C(NCc1ccc(Br)cc1)Nc1cccc2[nH]ccc12 [1-[(4-bromophenyl)methyl]-3-1H-indol-4-ylurea] |
| 180 nM | O=C(NCc1ccc(Br)cc1)Nc1cccc2cc[nH]c12 [1-[(4-bromophenyl)methyl]-3-1H-indol-7-ylurea] |
| 76 nM | Cn1ncc2c(NC(=O)NCc3ccc(Br)cc3)cccc21 [1-[(4-bromophenyl)methyl]-3-(1-methyl-1H-indazol-4-yl)urea] |
| 1470 nM | Cc1[nH]c2cccc(NC(=O)NCc3ccc(Br)cc3)c2c1C [1-[(4-bromophenyl)methyl]-3-(2,3-dimethyl-1H-indol-4-yl)urea] |
| 720 nM | Cn1ncc2c(NC(=O)NCc3ccc(F)cc3)cccc21 [1-[(4-fluorophenyl)methyl]-3-(1-methyl-1H-indazol-4-yl)urea] |
| 40 nM | O=C(NCc1ccc(C(F)(F)F)c(F)c1)Nc1cccc2[nH]ccc12 [1-{[3-fluoro-4-(trifluoromethyl)phenyl]methyl}-3-1H-indol-4-ylurea] |
| 70 nM | O=C(NCc1ccc(Cl)c(C(F)(F)F)c1)Nc1cccc2[nH]ccc12 [1-{[4-chloro-3-(trifluoromethyl)phenyl]methyl}-3-1H-indol-4-ylurea] |
| 44 nM | O=C(NCc1cccc(C(F)(F)F)c1)Nc1cccc2[nH]ncc12 [3-1H-indazol-4-yl-1-{[3-(trifluoromethyl)phenyl]methyl}urea] |
| 11 nM | O=C(NCc1ccc(OC(F)(F)F)cc1)Nc1cccc2[nH]ncc12 [3-1H-indazol-4-yl-1-{[4-(trifluoromethoxy)phenyl]methyl}urea] |
| 35 nM | Cn1ncc2c(NC(=O)NCc3ccc(OC(F)(F)F)cc3)cccc21 [3-(1-methyl-1H-indazol-4-yl)-1-{[4-(trifluoromethoxy)phenyl]methyl}urea] |

Second part, the compound before the results:

| Compound | EC50 |
| --- | --- |
| O=C(NCc1ccc(Cl)c(Cl)c1)Nc1cccc2[nH]ncc12 [1-[(3,4-dichlorophenyl)methyl]-3-1H-indazol-4-ylurea] | 21 nM |
| O=C(NCc1ccc(Cl)c(Cl)c1)Nc1cccc2[nH]ccc12 [1-[(3,4-dichlorophenyl)methyl]-3-1H-indol-4-ylurea] | 220 nM |
| O=C(NCc1cccc(F)c1)Nc1cccc2[nH]ccc12 [1-[(3-fluorophenyl)methyl]-3-1H-indol-4-ylurea] | 2700 nM |
| O=C(NCc1ccc(Br)cc1)Nc1cccc2[nH]ncc12 [1-[(4-bromophenyl)methyl]-3-1H-indazol-4-ylurea] | 13 nM |
| O=C(NCc1ccc(Br)cc1)Nc1ccc2[nH]ccc2c1 [1-[(4-bromophenyl)methyl]-3-1H-indol-5-ylurea] | 5850 nM |
| O=C(NCc1ccc(Br)cc1)Nc1ccc2cc[nH]c2c1 [1-[(4-bromophenyl)methyl]-3-1H-indol-6-ylurea] | 3010 nM |
| Cn1cc2c(NC(=O)NCc3ccc(Br)cc3)cccc2n1 [1-[(4-bromophenyl)methyl]-3-(2-methyl-2H-indazol-4-yl)urea] | 1390 nM |
| O=C(NCc1ccc(Cl)cc1)Nc1cccc2[nH]ccc12 [1-[(4-chlorophenyl)methyl]-3-1H-indol-4-ylurea] | 150 nM |
| Cn1ncc2c(NC(=O)NCc3ccc(Cl)cc3)cccc21 [1-[(4-chlorophenyl)methyl]-3-(1-methyl-1H-indazol-4-yl)urea] | 60 nM |
| O=C(NCc1ccc(F)cc1)Nc1cccc2[nH]ccc12 [1-[(4-fluorophenyl)methyl]-3-1H-indol-4-ylurea] | 2710 nM |
| O=C(Cc1cccc2[nH]ncc12)NCc1ccc(C(F)(F)F)cc1 [2-(1H-indazol-4-yl)-N-{[4-(trifluoromethyl)phenyl]methyl}acetamide] | 10200 nM |
| O=C(Cc1cccc2[nH]ccc12)NCc1ccc(C(F)(F)F)cc1 [2-(1H-indol-4-yl)-N-{[4-(trifluoromethyl)phenyl]methyl}acetamide] | 520 nM |
| O=C(NCc1ccc(Br)cc1)Nc1cccc2nc[nH]c12 [3-1H-1,3-benzodiazol-4-yl-1-[(4-bromophenyl)methyl]urea] | 2470 nM |
| O=C(NCc1ccc(C(F)(F)F)cc1)Nc1cccc2[nH]ncc12 [3-1H-indazol-4-yl-1-{[4-(trifluoromethyl)phenyl]methyl}urea] | 9 nM |
| O=C(NCc1ccc(OC(F)(F)F)cc1)Nc1cccc2[nH]ccc12 [3-1H-indol-4-yl-1-{[4-(trifluoromethoxy)phenyl]methyl}urea] | 80 nM |
| O=C(NCc1ccc(C(F)(F)F)cc1)Nc1cccc2[nH]ccc12 [3-1H-indol-4-yl-1-{[4-(trifluoromethyl)phenyl]methyl}urea] | 60 nM |
| O=C(Nc1cccc2[nH]ccc12)OCc1ccc(C(F)(F)F)cc1 [[4-(trifluoromethyl)phenyl]methyl N-(1H-indol-4-yl)carbamate] | 940 nM |
